This is an account of results in patent publication US20260285877A1, “Macrocyclic EGFR Inhibitor, and Preparation Method Therefor and Pharmaceutical Use Thereof” (Abbisko Therapeutics Co., Ltd., priority 2022, published 2026).

The nature of data set [1]: Pharmacokinetic experiment in mice. It counts as in vivo. Conditions: mouse, plasma; ICR mice, PO 10 mg/kg (IV 2 mg/kg); read-out: Oral F. From the text:
The purpose of this trial is to study the pharmacokinetic behavior of some compounds of the present invention, and the administration method is: Single oral administration (PO) to ICR mice. The compounds used in this trial are from the compounds in the specific examples of the present invention and the listed positive compounds. ICR mice male N=9 original source: Shanghai Sippr-Bk Lab Animal Co., Ltd. The compounds are weighed and dissolved in the corresponding solution (10% PG+10% Solutol®+80% pH3 citrate buffer). The mixture is then shaken well and sonicated to prepare a 1 mg/mL stock solution. Nine mice are orally administered at a dose of 10 mg/kg (or IV 2 mg/kg) after an overnight fast. About 90 μL of blood is collected via the submandibular vein per time point, heparin sodium anticoagulant is added, the sample is placed on ice after collection, and plasma is centrifuged within 1 hour (centrifugation conditions: 8,000 rpm, 6 minutes, 2-8° C.). The blood collection timepoints are 0, 0.25, 0.5, 1, 2, 4, 6, 8 and 24 h. The samples are stored in a −20° C. refrigerator. The plasma sample is 40 μL, 160 μL of ice-cold acetonitrile containing internal standard is added, vortexed for 3 minutes, and centrifuged at 11,000 rpm for 5 minutes. 100 μL of the supernatant is taken and added to 100 μL of water, 5 μL of the sample is taken and injected into LC/MS/MS for analysis.

Another data set deals with A431 WT. In words: Cell proliferation assay (CellTiter-Glo), A431 WT. It counts as cell-based. The conditions noted are these: Homo sapiens, A-431; A431 WT cells, 72 hour incubation, CTG. As for the experimental part:
(§1) • (1) Harvest cells in a logarithmic growth phase and count the cells using a platelet counter.
(§2) • (1) Add 10 μL PBS to each well of the TO plate containing cells. • (2) Thaw the CTG reagent and equilibrate the plate to room temperature for 30 minutes. • (3) Add an equal volume of CTG solution to each well. • (4) Lyse cells by shaking on an orbital shaker for 5 minutes. • (5) Leave the plate at room temperature for 20 minutes to stabilize the luminescence signal. • (6) Read the TO fluorescence signal.
(§3) Then add 10 μL of the drug solution concentration to individual wells of the 96-well plate seeded with cells.
(§4) • (1) Thaw the CTG reagent and equilibrate the plate to room temperature for 30 minutes. • (2) Add an equal volume of CTG solution to each well. • (3) Lyse cells by shaking on an orbital shaker for 5 minutes. • (4) Leave the plate at room temperature for 20 minutes to stabilize the fluorescence signal. • (5) Read fluorescence value.
(§5) Analyze the data by using GraphPad Prism 7.0 software, and use Non-linear S-curve regression to fit the dose-response curves, to calculate the IC50 values (in nM).
(Cellular ATP, detected with luciferase, serves as a proxy for viable cell number.)

Data set [2] has as its system Ba/F3 EGFR-L858R-C797S (LC). As to the kind of experiment: Cell proliferation assay (CellTiter-Glo), Ba/F3 EGFR-L858R-C797S. Conditions: Mus musculus, BaF3; Ba/F3 EGFR-L858R-C797S cells, 72 hour incubation, CTG. It counts as cell-based. As for the experimental part: as §1, §2, §3, §4, §5
In data set [3] the test system is Ba/F3 EGFR-L858R-T790M-C797S (LTC). As to the kind of experiment: Cell proliferation assay (CellTiter-Glo), Ba/F3 EGFR-L858R-T790M-C797S. It counts as cell-based. Conditions: Mus musculus, BaF3; Ba/F3 EGFR-L858R-T790M-C797S cells, 72 hour incubation, CTG. As for the experimental part: as §1, §2, §3, §4, §5
The conditions of data set [4]: phase III FLAURA, compared with first-generation EGFR TKIs; cited from earlier work.

Regarding `CCS(=O)(=O)C[C@H]1CCN(c2nn3c4cc(ncc24)Nc2ccnc(n2)-c2cnn(C)c2OCC2(CCCC2)C3)C1` [Example 35, (S)-3′-(3-((ethylsulfonyl)meth-yl)pyrrolidin-1-yl)-1′-meth-ylspiro(cyclopentane-1,6′-8-oxa-3-aza-4(6,1)-pyrazolo [4,3-c]pyridina-2(2,4)-pyri-midina-1(4,5)-pyrazolacyclo-octaphane)], the bioavailability in data set [1] came to 81.5%.

For `CC(=O)N[C@@H]1CCN(c2nn3c4cc(ncc24)Nc2ccnc(n2)-c2cnn(C)c2OCC2(CCCC2)C3)C1` [Example 49], the IC50 – broadly, the concentration that gives 50% inhibition – is 926 nM with A431 WT, 59.9 nM in data set [2] and 29.6 nM in data set [3].

On to `C=CC(=O)Nc1cc(Nc2nccc(-c3cn(C)c4ccccc34)n2)c(OC)cc1N(C)CCN(C)C` [Osimertinib], for which, in data set [4], the overall survival is given as 38.6 months and the progression-free survival is reported as 18.9 months.
